Experimental data taken from publication PMC4514675, “Novel Apo E-Derived ABCA1 Agonist Peptide (CS-6253) Promotes Reverse Cholesterol Transport and Induces Formation of preβ-1 HDL In Vitro” (PLoS ONE, 2015).

Assays:
[1] = test system: BHK-ABCA1 plasma membrane microdomains; assay: Cholesterol and phospholipid desorption from raft and non-raft domains of BHK-ABCA1 cells; assay type: cell-based, hamster; conditions: 45 min
Method: Lipid labeling was performed as described previously with minor modifications. Briefly, BHK-cells were labeled with either 5 μCi/ml ^3[H] choline (Perkin-Elmer) for 48 h or 3 μCi/ml ^3[H] cholesterol (Perkin-Elmer) for 24 h, and then stimulated as described above. […] For each fraction, lipids were extracted by Folch and ^3[H]choline-labeled PtdCho, and SM were separated by TLC in the solvent system chloroform-methanol-water (65:35:4; v/v/v), and counted.
Supplementary file pone.0131997.s008.tif: S7 Fig CS-6253 desorbs phospholipids from raft and nonraft domains. […] After lipid extraction, ^3[H]cholesterol in each fraction was assessed for radioactivity. Radioactivity appearing in fractions corresponding to raft (1–5) and nonraft (6–10) material was pooled, and desorption of ^3[H]cholesterol and ^3[H]choline, from raft versus nonraft in the presence of apo A-I or CS-6253 was expressed as a percentage of control (100%, in the absence of acceptor) (S4 to S7 inset). […]
Sucrose density gradient fractionation was performed by ultracentrifugation (1,2). […] Ten fractions of 1ml were collected from top to bottom and analyzed for radioactivity, and lipid content ^3[H]-FC and ^3[H]-choline. […]

ABCA1 = ABCA1 (Homo sapiens, UniProt O95477); assay: ABCA1-mediated phospholipid efflux from BHK-ABCA1 cells; assay type: cell-based; parameters: expressed in transfected cells; host or cells: BHK cells, stably transfected, induced with 10 nM mifepristone; conditions: mean of triplicates ± SD, n = 3
Method: Supplementary file pone.0131997.s003.tif: S2 Fig Phospholipid efflux from BHK cells expressing ABCA1 to increasing concentrations of lipid free CS-6253 and apo A-I. Baby hamster kidney (BHK) cells were labeled with ^3[H]-choline. ABCA1 expression was induced by treating BHK cells with 10 nM mifepristone. Cells were then changed into fresh DMEM medium [no apolipoprotein A-I (apoA-I)] and incubated with apoA-I or CS-6253 (0.96 uM). Medium was collected after 2 h. […] Results represent the mean of triplicates ± SD, n = 3. (TIF) Click here for additional data file.
Cells were seeded (50×10^3 cells) in 24 well plates containing DMEM plus 10% FBS with 3 μCi/ml ^3H-choline chloride (Perkin Elmer, Norwalk, Connecticut), for 72 hours as previously reported with minor changes). Cells were then put into induction medium for 18–20 h (10 nM mifepristone). This was followed by incubation with increased molar doses of apo A-I and CS-6253 for 2 h at 37°C. Efflux medium was collected, and cellular lipids were extracted with hexane/isopropanol (3:2 v/v), while total phospholipids from the medium were extracted in chloroform /methanol (2:1 v/v). Efflux was determined as percent of total ^3[H] Phospholipids in the medium. All results were conformed at least twice. (S2 Fig.)

[2] = test system: BHK-ABCA1 plasma membrane microdomains; assay: Desorption of phosphatidylcholine and sphingomyelin species from raft and non-raft domains of BHK-ABCA1 cells; assay type: cell-based, hamster; conditions: 0.96 μM, 12 h
Method: Lipid labeling was performed as described previously with minor modifications. Briefly, BHK-cells were labeled with either 5 μCi/ml ^3[H] choline (Perkin-Elmer) for 48 h or 3 μCi/ml ^3[H] cholesterol (Perkin-Elmer) for 24 h, and then stimulated as described above. Cells were subsequently incubated with lipid-free apoA-I or CS-6253 at (0.96 μM) for 12h, and fractionated by sucrose gradient in the presence of 0.2% Triton X-100. For each fraction, lipids were extracted by Folch and ^3[H]choline-labeled PtdCho, and SM were separated by TLC in the solvent system chloroform-methanol-water (65:35:4; v/v/v), and counted.
Fig 4 Apo A-I (left panels) and CS-6253 (right panels) desorb phospholipids species from raft and nonraft domains. […] After lipid extraction by Folch, ^3[H]phosphatidyl choline (^3[H]PC) (A and B), or ^3[H]sphingomyelin (^3[H]SM) (C and D) in each fraction was assessed for radioactivity. Radioactivity appearing in fractions corresponding to raft (1–5) and nonraft (6–10) material was pooled, and desorption of ^3[H]PC (A and B inset) and ^3[H]SM (C and D inset), from raft versus nonraft in the presence of apo A-I or CS-6253 was expressed as a percentage of control (100%, in the absence of acceptor). ^3[H]PC and ^3[H]SM distributions in sucrose gradient fractions after 12h incubation with apo A-I or CS-6253 were assessed by TLC respectively. […]

Sequence of ABCA1 (O95477 whole entry): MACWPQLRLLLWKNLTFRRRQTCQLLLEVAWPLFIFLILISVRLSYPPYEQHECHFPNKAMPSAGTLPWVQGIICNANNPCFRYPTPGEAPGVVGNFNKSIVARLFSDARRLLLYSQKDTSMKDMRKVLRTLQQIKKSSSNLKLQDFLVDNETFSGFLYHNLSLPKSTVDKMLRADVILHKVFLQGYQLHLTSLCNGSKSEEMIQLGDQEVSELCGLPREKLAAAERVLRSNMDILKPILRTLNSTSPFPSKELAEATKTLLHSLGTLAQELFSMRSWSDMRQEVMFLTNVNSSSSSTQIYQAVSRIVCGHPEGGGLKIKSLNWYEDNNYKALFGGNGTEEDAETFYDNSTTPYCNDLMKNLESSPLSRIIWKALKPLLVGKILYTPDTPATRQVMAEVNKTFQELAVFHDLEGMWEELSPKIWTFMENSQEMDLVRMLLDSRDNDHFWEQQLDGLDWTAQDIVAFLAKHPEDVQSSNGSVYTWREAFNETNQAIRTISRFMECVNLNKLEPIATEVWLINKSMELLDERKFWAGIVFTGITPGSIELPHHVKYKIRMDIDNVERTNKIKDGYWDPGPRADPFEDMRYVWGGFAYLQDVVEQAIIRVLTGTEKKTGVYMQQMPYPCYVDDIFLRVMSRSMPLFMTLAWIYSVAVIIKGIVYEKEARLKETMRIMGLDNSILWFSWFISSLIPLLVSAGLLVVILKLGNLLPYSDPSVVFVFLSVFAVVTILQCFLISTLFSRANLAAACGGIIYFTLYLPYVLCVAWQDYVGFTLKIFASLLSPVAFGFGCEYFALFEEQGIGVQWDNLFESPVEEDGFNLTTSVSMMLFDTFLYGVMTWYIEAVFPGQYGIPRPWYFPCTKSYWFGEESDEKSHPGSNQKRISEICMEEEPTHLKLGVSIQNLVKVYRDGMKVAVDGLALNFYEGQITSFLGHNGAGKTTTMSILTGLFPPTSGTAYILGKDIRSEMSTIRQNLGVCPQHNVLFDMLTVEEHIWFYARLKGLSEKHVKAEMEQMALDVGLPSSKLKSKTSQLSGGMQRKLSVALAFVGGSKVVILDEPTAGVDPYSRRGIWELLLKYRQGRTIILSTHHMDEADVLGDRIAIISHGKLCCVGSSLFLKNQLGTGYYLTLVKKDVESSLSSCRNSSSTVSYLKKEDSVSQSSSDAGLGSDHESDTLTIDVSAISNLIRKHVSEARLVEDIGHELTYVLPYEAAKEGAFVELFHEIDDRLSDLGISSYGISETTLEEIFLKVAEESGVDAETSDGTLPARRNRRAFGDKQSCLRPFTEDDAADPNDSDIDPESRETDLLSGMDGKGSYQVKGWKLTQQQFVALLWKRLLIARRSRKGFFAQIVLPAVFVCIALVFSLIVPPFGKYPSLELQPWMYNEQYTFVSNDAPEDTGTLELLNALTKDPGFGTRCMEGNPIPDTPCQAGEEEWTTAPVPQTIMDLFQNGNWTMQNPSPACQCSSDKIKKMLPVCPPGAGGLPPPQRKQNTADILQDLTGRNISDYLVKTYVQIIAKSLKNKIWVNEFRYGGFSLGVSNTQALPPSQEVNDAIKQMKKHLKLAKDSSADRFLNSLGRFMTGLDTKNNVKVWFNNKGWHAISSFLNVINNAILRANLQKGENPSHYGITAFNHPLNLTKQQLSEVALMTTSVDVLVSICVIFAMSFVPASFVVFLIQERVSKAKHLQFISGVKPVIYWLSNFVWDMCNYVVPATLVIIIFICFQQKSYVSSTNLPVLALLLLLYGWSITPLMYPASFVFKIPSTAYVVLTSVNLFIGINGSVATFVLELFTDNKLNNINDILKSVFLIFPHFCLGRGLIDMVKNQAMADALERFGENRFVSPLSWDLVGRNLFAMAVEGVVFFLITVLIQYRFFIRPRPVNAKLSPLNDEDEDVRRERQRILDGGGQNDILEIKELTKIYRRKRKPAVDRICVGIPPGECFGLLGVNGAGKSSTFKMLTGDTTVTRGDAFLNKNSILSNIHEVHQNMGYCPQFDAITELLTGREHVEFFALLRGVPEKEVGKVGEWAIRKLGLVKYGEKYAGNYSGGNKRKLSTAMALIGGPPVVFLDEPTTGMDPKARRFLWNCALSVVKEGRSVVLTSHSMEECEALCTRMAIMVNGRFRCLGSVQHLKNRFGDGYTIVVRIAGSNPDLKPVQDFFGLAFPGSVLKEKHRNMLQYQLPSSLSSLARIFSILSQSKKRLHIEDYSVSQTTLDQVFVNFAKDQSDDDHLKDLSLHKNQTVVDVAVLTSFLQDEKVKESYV

Substance: apolipoprotein A-I [apo A-I]
- cholesterol desorption from rafts and non-rafts [1]: 25%
- Km (ABCA1; 2 h): 0.14 ± 0.02 µM
- Km, phospholipid efflux (ABCA1; 2 h): 3.65 ± 0.49 µg/mL
- Vmax, phospholipid efflux (ABCA1): 0.77±0.02 % efflux/2h
- PC desorption in PM microdomains (in words) [2]: less PC desorption in PM microdomains than CS-6253
- SM desorption [2]: desorbed from both non-raft and raft domains
